In the NIST ThermoML archive (doi:10.1021/je060146z):
Numbers after ± are expanded uncertainties.

Conditions: Crystal

Normal melting temperature [°C]	Compound
31.27 ± 1.2	CCCCCCCCCC(=O)O [decanoic acid]
62.29 ± 1.2	CCCCCCCCCCCCCCCC(=O)O [hexadecanoic acid]
43.79 ± 1.2	CCCCCCCCCCCC(=O)O [dodecanoic acid]
68.76 ± 1.2	CCCCCCCCCCCCCCCCCC(=O)O [octadecanoic acid]
54.33 ± 1.2	CCCCCCCCCCCCCC(=O)O [tetradecanoic acid]
